{"source": "patent US20140275094A1", "about": "“METHOD FOR TREATING PULMONARY ARTERIAL HYPERTENSION IN A PATIENT NOT HAVING IDIOPATHIC PULMONARY FIBROSIS” (GILEAD SCIENCES, INC., priority 2012, published 2014)", "key": {"[1]": {"assay": "Post-marketing spontaneous and clinical serious adverse event hepatic data (LEAP), 2 years after first approval", "type": "in vivo, human", "source_text": "During the 2-year period since ambrisentan was first approved, the vast majority of patient exposure had been in the U.S. through Letairis Education and Access Program (LEAP). As of 14 Jun. 2009, a total of 6,622 patients had enrolled in LEAP and received at least one shipment of ambrisentan. Approximately half of the patients for whom duration of therapy was available received ambrisentan for a period of at least 6 months, resulting in a total of 3,847 patient-years of exposure. Exposure duration is depicted in FIG. 3 showing LEAP patients by exposure duration.\nA total of 120 post-marketing spontaneous reports were identified for the 2-year period (15 Jun. 2007 through 14 Jun. 2009) where 119 reports were received via LEAP in the U.S. and the remaining one was received from Germany (outside of LEAP). As of 31 Mar. 2009, there were […] of exposure to ambrisentan. All reports were actively followed up in accordance with Gilead Drug Safety procedures to obtain all important information needed to assess a potential relationship with ambrisentan therapy, particularly laboratory data, medical history and concurrent medications. All reports included potential alternative causes for the hepatic events which are unrelated to ambrisentan therapy, such as right-sided heart failure due to underlying PAH, other co-morbidities or concurrent medications.\nOf the 120 spontaneous reports, 55 reports were medically-confirmed suspected adverse reaction reports. A total of 28 cases were considered “clinically significant hepatic events” which are defined as (1) ALT and/or AST increases >3×ULN, (2) serum total bilirubin increases >2×ULN, (3) any hepatic event associated with potential signs/symptoms of hepatic disease, or (4) any clinically significant hepatic event term (e.g., liver failure). These cases included 24 reports of serum aminotransferase (ALT/AST) increases >3×ULN; 3 reports of elevated serum total bilirubin>2×ULN; and 1 report of elevated serum aminotransferases with signs and symptoms, but AST and ALT values were not provided. Of these 28 cases, there were 3 reports of both elevated ALT/AST>3×ULN and serum total bilirubin>2×ULN. However, these reports included probable alternate causes of the hepatic events such as sickle cell disease in a patient with baseline serum total bilirubin of ‘7.7’, suspected gall bladder disease in a patient who developed increased serum total bilirubin (5×ULN) and alkaline phosphatase (3.3×ULN) 11 days before an increase in ALT to 3.1×ULN, and documented cardiogenic shock and right-sided heart failure due to PAH.\nThere were 7 drug-related serious adverse event (SAE) reports from clinical studies which had evidence of alternative causes of the hepatic events or were poorly documented. Six of the reports were considered clinically significant, including one case where ALT/AST was >3×ULN and serum total bilirubin>2×ULN. However, probable causes of the hepatic events in this case included concurrent right heart failure, diagnosed after the patient admitted missing several doses of ambrisentan and 3-4 days of sildenafil and furosemide and with a baseline serum total bilirubin of 1.7×ULN.\nThe estimated post-marketing incidence rate of hepatic events with ambrisentan in the U.S. during the 2-year post-marketing period is 1.8% (119/6622), detected through LEAP. This rate is consistent with the background rate of placebo-treated PAH patients in clinical trials evaluating ERAs which appeared to have an incidence rate of 2%-3% over a 12- to 24-week period."}, "[2]": {"tested_on": "patients with PAH (WHO Group 1)", "assay": "ARIES-2 12-week placebo-controlled study", "type": "in vivo, human", "experimental": "Two 12-week, randomized, double-blind, placebo-controlled, multicenter studies were conducted in 393 patients with PAH (WHO Group 1). The two studies were identical in design except for the doses of ambrisentan and the geographic region of the investigational sites. ARIES-1 (Ambrisentan in Pulmonary Arterial Hypertension, Randomized, Double-Blind, Placebo-Controlled, Multicenter, Efficacy Studies) compared once-daily doses of 5 mg and 10 mg ambrisentan to placebo, […] In both studies, ambrisentan or placebo was added to current therapy, which could have included a combination of anticoagulants, diuretics, calcium channel blockers, or digoxin, but not epoprostenol, treprostinil, iloprost, bosentan, or sildenafil. The primary study endpoint was 6-minute walk distance. In addition, clinical worsening, WHO functional class, dyspnea, and SF-36® Health Survey were assessed.\nPatients had idiopathic or heritable PAH (64%) or PAH associated with connective tissue diseases (32%), HIV infection (3%), or anorexigen use (1%). There were no patients with PAH associated with congenital heart disease.\nPatients had WHO functional class I (2%), II (38%), III (55%), or IV (5%) symptoms at baseline. The mean age of patients was 50 years, 79% of patients were female, and 77% were Caucasian.\nClinical Worsening: Time to clinical worsening of PAH was defined as the first occurrence of death, lung transplantation, hospitalization for PAH, atrial septostomy, study withdrawal due to the addition of other PAH therapeutic agents or study withdrawal due to early escape. Early escape was defined as meeting two or more of the following criteria: a 20% decrease in the 6-minute walk distance; an increase in WHO functional class; worsening right ventricular failure; rapidly progressing cardiogenic, hepatic, or renal failure; or refractory systolic hypotension."}, "[3]": {"conditions": "among the 28 clinically significant cases"}, "[4]": {"conditions": "ARIES-2, 5 mg (N = 64), 12 weeks"}, "[5]": {"conditions": "ARIES-2, ambrisentan N = 127, 12-week treatment, intention-to-treat"}}}
{"smiles": "COC(c1ccccc1)(c1ccccc1)[C@H](Oc1nc(C)cc(C)n1)C(=O)O", "note": "[Ambrisentan, (25)-2-[(4,6-dimethylpyrimidin-2-yl)oxy]-3-methoxy-3,3-diphenylpropanoic acid]", "values": [{"measurement": "post-marketing spontaneous reports of hepatic events, number", "setting": "[1]; 15 Jun. 2007 through 14 Jun. 2009", "result": 120}, {"measurement": "estimated post-marketing incidence rate of hepatic events", "setting": "[1]; U.S., 2-year post-marketing period, LEAP (119/6622)", "result": 1.8, "unit": "%"}, {"measurement": "reports of both elevated ALT/AST >3×ULN and serum total bilirubin >2×ULN, number", "setting": "[1]; [3]", "result": 3}, {"measurement": "reports of elevated serum total bilirubin >2×ULN, number", "setting": "[1]; [3]", "result": 3}, {"measurement": "reports of serum aminotransferase (ALT/AST) increases >3×ULN, number", "setting": "[1]; [3]", "result": 24}, {"measurement": "drug-related serious adverse event (SAE) reports from clinical studies, number", "setting": "[1]; hepatic events", "result": 7}, {"measurement": "cases considered clinically significant hepatic events, number", "setting": "[1]; of 55 medically-confirmed suspected adverse reaction reports", "result": 28}, {"measurement": "incidence of hepatic events (adverse events and elevated aminotransferase levels)", "setting": "[1]; post-marketing data", "result": "approximately 2%"}, {"measurement": "Placebo-adjusted mean change from baseline in 6-minute walk distance", "setting": "[2]; [4]", "result": 32, "unit": "meters"}, {"measurement": "Placebo-adjusted median change from baseline in 6-minute walk distance", "setting": "[2]; [4]", "result": 30, "unit": "meters"}, {"measurement": "Mean change from baseline in 6-minute walk distance", "setting": "[2]; ARIES-2, 5 mg (N = 64), 12 weeks, mean ± SD", "result": "22 ± 83", "unit": "meters"}, {"measurement": "Clinical worsening, %", "setting": "[2]; [5]", "result": 6, "unit": "%"}, {"measurement": "Clinical worsening, no.", "setting": "[2]; [5]", "result": 8}, {"measurement": "Time to clinical worsening, hazard ratio", "setting": "[2]; ARIES-2, versus placebo", "result": 0.30}]}
